Measurements from US12208164B2, “Modular metal-organic polyhedra superassembly compositions” (UNM Rainforest Innovations, priority 2019, dated 2025).

Tested on: A549 cells
Test: Targeted cell killing efficacy, viability of A549 cells
Type: cell-based, human
Conditions: incubated 2 hours, series of concentrations
Description: Cell viability of the constructed nanocarriers was assessed by CellTiter-Glo 2.0 assay. […] Then, 100 μL of the samples was added into a white 96-well plate. Subsequently, 100 μL CellTiter-Glo 2.0 reagent was dispensed into each well. The luminescence was recorded 10 minutes after addition of CellTiter-Glo 2.0 reagent by a BioTek microplate reader. Cell viability was calculated as a percentage of mammalian cells in the absence of nanocarriers.

COc1cccc2c1C(=O)c1c(O)c3c(c(O)c1C2=O)C[C@@](O)(C(=O)CO)C[C@@H]3O[C@H]1C[C@H](N)[C@H](O)[C@H](C)O1 [free DOX, doxorubicin]
toxicity to A549 cells: dose-dependent toxicity
